# According to patent publication US20160200734A1, “CARBOXYLIC ACID COMPOUNDS IN TREATMENT OF DIABETES MELLITUS” (FUJIAN HAIXI PHARMACEUTICALS CO., LTD., priority 2013, published 2016):
# Biological target: T1, GPR40 (Homo sapiens, UniProt O14842)
# T1 construct: expressed in transfected cells
# Experiment: GPR40 Activation Assay (Wash Free Fluo-8 Calcium Assay)
# Type: cell-based
# Details: HEK293 cells stably expressing GPR40; fluorescence intensity Ex=494 nm, Em=516 nm
# Experimental: This test procedure substantially carried out in accordance with the HDB company's Wash Free Fluo-8 Calcium Assay Kits. HEK293 cells stably expressing GPR40 were selected in a media containing Neomycin/G418. The cells were plated at a concentration of 30 uL 15,000 cells per well in black 384-well clear bottom tissue culture treated plates. The cells were incubated for 24 h in a incubator with 5% CO2.
# According to Wash Free Fluo-8 Calcium Assay Kits operating instruction, one component A was dissolved in 210 uL DMSO, one component B was dissolved in 2.4 mL component C. After a 200 mM probenecid solution was prepared, 40 μL component A, 400 μL component B, 200 μL 200 mM probenecid and […] component C were mixed to a 20 mL test solution.
# After removal of medium from the black 384-well dear bottom tissue culture treated plates by centrifuge, the test solution was added at 30 uL/well and the plates were incubated for 60 mins at 37° C. All test compounds were diluted to appropriate concentrations in HBSS buffer. Compounds were added to the cells and the wells were read fluorescence intensity at Ex=494 nm, Em=516 nm and readings were taken for 2 mins with an interval of 1 s. The compounds dose-dependent curve and EC50 were obtained by the Graphpad Prism4 software.
# T1 sequence (O14842 whole entry, species assumed): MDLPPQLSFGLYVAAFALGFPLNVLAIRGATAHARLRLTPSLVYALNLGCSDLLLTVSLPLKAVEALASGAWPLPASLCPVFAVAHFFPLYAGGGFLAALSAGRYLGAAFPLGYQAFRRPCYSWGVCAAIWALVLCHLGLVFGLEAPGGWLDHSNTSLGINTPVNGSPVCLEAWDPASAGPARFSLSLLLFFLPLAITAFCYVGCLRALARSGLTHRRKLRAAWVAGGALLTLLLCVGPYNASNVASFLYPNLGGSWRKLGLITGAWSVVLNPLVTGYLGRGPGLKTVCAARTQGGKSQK
row,EC50 [nM],SMILES
1,878,"Cc1cc(OCCCS(C)(=O)=O)cc(C)c1-c1cccc2c1CCC2Oc1ccc2c(c1)SC[C@H]2CC(=O)O (stereo partly drawn) [Example 51, 2-((3S)-6-((4-(2,6-dimethyl-4-(3-(methylsulfonyl)propoxy)phenyl)-2,3-dihydro-1H-inden-1-yl)oxy)-2,3-dihydrobenzo[b]thiophen-3-yl)acetic acid]"
2,1260,"CSCCCOc1cc(C)c(-c2cccc3c2CCC3Oc2ccc3c(c2)SC[C@H]3CC(=O)O)c(C)c1 (stereo partly drawn) [Example 52, 2-((3S)-6-((4-(2,6-dimethyl-4-(3-(metylthio)porpoxy)phenyl)-2,3-dihydro-1H-inden-1-yl)oxy)-2,3-dihydrobenzo[b]thiophen-3-yl)acetic acid]"
3,997,"COCCCOc1cc(C)c(-c2cccc3c2CCC3Oc2ccc3c(c2)SC[C@H]3CC(=O)O)c(C)c1 (stereo partly drawn) [Example 53, 2-((3S)-6-((4-(4-(3-methoxypropoxy)-2,6-dlmethylphenyl)-2,3-dihydro-1H-inden-1-yl)oxy)-2,3-dihydrobenzo[b]thiophen-3-yl)acetic acid]"
